Read-outs that look alike come from different tables or passages of the source.

The values that follow come from US9861616B2, “Methods for treating respiratory diseases and formulations therefor” (priority 2013, dated 2018).

For assay [1], the system named is MRSA strains from CF patients. The experiment in a line: Microdilution MICs against 40 MRSA strains from CF patients. The format is cell-based, S. aureus. The protocol:
(§1) Two strains each of mucoid P. aeruginosa (both pyocyanin positive) and […] MRSA (only one strain with gold colonies) isolated from patients at a CF clinic were tested. Additionally, 2 B. cepacia strains were acquired, from Hershey Medical Center. All strains were identified by standard methods. Only one strain per patient was tested. MLVA was done on all strains to examine clonality, and confirmed that examination is not taking place on only one or a few clones. Strains will be stored in skim milk at −70° C. until use.
(§2) Original MICs of each strain to CEM-101 and other comparators were tested by CLSI microdilution methodology. Trays were obtained from Trek, Inc., Cleveland, Ohio. Time-kill macrobroth MIC dilution by CLSI was performed for all synergy testing.
In general terms: Broth dilution looks for growth in wells or tubes with falling amounts of substance.

A further assay has as its system MRSA SA 2230, SA 2232. Nature of the assay: Time-kill macrobroth MICs. The format is cell-based, S. aureus. The protocol:
as §2
(§3) Two of the MRSA strains were chosen and tested for synergy, together with the 4 Gram-negative strains mentioned above. Broth macrodilution formed the basis of MICs used in time-kill experiments, as detailed below. The kill kinetics of each drug was tested alone by incubating an initial inoculum of 5×10^5 to 5×10^6 cfu/mL with drug concentrations at the MIC, three dilutions above and three dilutions below the MIC (½, ¼ and ⅛×MIC). Viability counts were performed after 0, 3, 6, 12 and 24 h incubation at 37° C. in a shaking water bath by plating onto trypticase soy-5% sheep blood agar plates.

In assay [2] the test system is P. aeruginosa PSAR 461, PSAR 468. Nature of the assay: Time-kill macrobroth MICs. The format is cell-based. Here is the method:
as §2, §3

For assay [3], the system named is B. cepacia BCEP 953, BCEP 954. Nature of the assay: Time-kill macrobroth MICs. The format is cell-based. The protocol:
as §2, §3

Assay [4] relates to B. cepacia strains from cystic fibrosis patients. Nature of the assay: Macrobroth dilution MICs, CF strains. The format is cell-based. The note with it: 2 B. cepacia strains from cystic fibrosis patients. The protocol:
as §1, §2

In assay [5] the test system is P. aeruginosa strains from cystic fibrosis patients. Nature of the assay: Macrobroth dilution MICs, CF strains. The format is cell-based. The conditions noted are these: 2 P. aeruginosa strains from cystic fibrosis patients. Here is the method:
as §1, §2

Setting [6] is: 40 MRSA strains from CF patients.
The mark [7] stands for this setting: Staphylococcus aureus, 40 MRSA strains from CF patients, read-out: MIC50.
[8] abbreviates: Staphylococcus aureus, 40 MRSA strains from CF patients, read-out: MIC90.

Turning to `CN(C)c1cc(NC(=O)CNC(C)(C)C)c(O)c2c1C[C@H]1C[C@H]3[C@H](N(C)C)C(O)=C(C(N)=O)C(=O)[C@@]3(O)C(O)=C1C2=O` [Tigecycline], the “MIC Range” value in assay [1] (setting [6]) was in the range of 0.12 to 0.25 µg/mL. In addition, in assay [1] (Staphylococcus aureus, MRSA), the MIC50 came to 0.12 µg/mL and the MIC90 is 0.25 µg/mL.

With `NC[C@H]1O[C@H](O[C@H]2[C@H](O)[C@@H](O[C@H]3O[C@H](CO)[C@@H](O)[C@H](N)[C@H]3O)[C@H](N)C[C@@H]2N)[C@H](N)C[C@@H]1O` [Tobramycin], the “Time-kill Macrobroth MIC” value is 4.0 µg/mL in the assay with MRSA SA 2230, SA 2232 (strain SA 2230); over 512 µg/mL in the assay on MRSA SA 2230, SA 2232 (strain SA 2232); 2.0 µg/mL in assay [2] (strain PSAR 461); 1.0 µg/mL in assay [2] (strain PSAR 468); 128 µg/mL in assay [3] (strain BCEP 953); 128 µg/mL in assay [3] (strain BCEP 954). For the same compound, the “MIC Range” value in assay [4] was 128 µg/mL; in assay [5], 0.25 to 1.0 µg/mL.

On to `NCC[C@H](O)C(=O)N[C@@H]1C[C@H](N)[C@@H](O[C@H]2O[C@H](CN)[C@@H](O)[C@H](O)[C@H]2O)[C@H](O)[C@H]1O[C@H]1O[C@H](CO)[C@@H](O)[C@H](N)[C@H]1O` [Amikacin], for which the “Time-kill Macrobroth MIC” value came to 32.0 µg/mL in the assay on MRSA SA 2230, SA 2232 (strain SA 2230); 64.0 µg/mL with MRSA SA 2230, SA 2232 (strain SA 2232); 8.0 µg/mL in assay [2] (strain PSAR 461); 4.0 µg/mL in assay [2] (strain PSAR 468); 512 µg/mL in assay [3] (strain BCEP 953); 256 µg/mL in assay [3] (strain BCEP 954). The “MIC Range” value is 256 µg/mL in assay [4] and 2 to 8 µg/mL in assay [5].

For the compound `CCCCCCCCCC(=O)N[C@@H](Cc1c[nH]c2ccccc12)C(=O)N[C@H](CC(N)=O)C(=O)N[C@@H](CC(=O)O)C(=O)N[C@@H]1C(=O)NCC(=O)N[C@@H](CCCN)C(=O)N[C@@H](CC(=O)O)C(=O)N[C@H](C)C(=O)N[C@@H](CC(=O)O)C(=O)NCC(=O)N[C@H](CO)C(=O)N[C@@H]([C@H](C)CC(=O)O)C(=O)N[C@@H](CC(=O)c2ccccc2N)C(=O)O[C@@H]1C` [Daptomycin], the “MIC Range” value in assay [1] (setting [6]) is recorded as 0.5-1^ μg/mL. In assay [1] (setting [7]), the MIC50 was determined as 0.5 µg/mL. In assay [1] (setting [8]), the MIC90 worked out at 1 µg/mL.

As for `CC(=O)NC[C@H]1CN(c2ccc(N3CCOCC3)c(F)c2)C(=O)O1` [Linezolid], the “MIC Range” value in assay [1] (setting [6]) fell in the range of 1 to 4 µg/mL. The MIC50 in assay [1] (setting [7]) amounted to 2 µg/mL. The MIC90 in assay [1] (setting [8]) amounted to 2 µg/mL.

Teicoplanin: in assay [1] (setting [6]), the MIC50 came to 0.5 µg/mL, the MIC90 came to 1 µg/mL and the “MIC Range” value fell in the range of 0.25 to 1 µg/mL.

Turning to `CN[C@H](CC(C)C)C(=O)N[C@H]1C(=O)N[C@@H](CC(N)=O)C(=O)N[C@H]2C(=O)N[C@H]3C(=O)N[C@H](C(=O)N[C@H](C(=O)O)c4cc(O)cc(O)c4-c4cc3ccc4O)[C@H](O)c3ccc(c(Cl)c3)Oc3cc2cc(c3O[C@@H]2O[C@H](CO)[C@@H](O)[C@H](O)[C@H]2O[C@H]2C[C@](C)(N)[C@H](O)[C@H](C)O2)Oc2ccc(cc2Cl)[C@H]1O` [Vancomycin], the “MIC Range” value in assay [1] (setting [6]) is 0.5-1^ μg/mL. Besides, in assay [1] (Staphylococcus aureus, MRSA), the MIC50 was found to be 0.5 µg/mL and the MIC90 amounted to 1 µg/mL.

In general, MIC50 refers to an inhibitory concentration at the 50% level, which refers to growth in some studies and to a panel of isolates in others. By MIC90 is commonly meant an inhibitory concentration at the 90% level, which refers to growth in some studies and to a panel of isolates in others.
